Reference: PubChem BioAssay (NCI)
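Assay format: 96-well plates, 48-hour exposure. GI50 = concentration required for 50% inhibition of growth. The concentration for full growth arrest is given as TGI.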

Tests used:
Experiment in all cases: NCI anticancer screen, dose series, 48 h
T-47D breast = system: T-47D breast
NCI-H23 lung = system: NCI-H23 lung
RXF 393 renal = system: RXF 393 renal
UO-31 renal = system: UO-31 renal
EKVX NSCLC = system: EKVX NSCLC
ACHN renal = system: ACHN renal
OVCAR-5 ovarian = system: OVCAR-5 ovarian
HOP-92 NSCLC = system: HOP-92 NSCLC
SF-539 CNS = system: SF-539 CNS
SK-OV-3 ovarian = system: SK-OV-3 ovarian
NCI-H226 lung = system: NCI-H226 lung
OVCAR-4 ovarian = system: OVCAR-4 ovarian
DU-145 prostate = system: DU-145 prostate
CAKI-1 renal = system: CAKI-1 renal
IGROV1 ovarian = system: IGROV1 ovarian
NCI-H460 lung = system: NCI-H460 lung
KM12 colon = system: KM12 colon
K-562 leukemia = system: K-562 leukemia
PC-3 prostate = system: PC-3 prostate
M14 melanoma = system: M14 melanoma
HL-60(TB) leukemia = system: HL-60(TB) leukemia
SNB-75 CNS = system: SNB-75 CNS
HOP-62 NSCLC = system: HOP-62 NSCLC
HS 578T breast = system: HS 578T breast
BT-549 breast = system: BT-549 breast
SR leukemia = system: SR leukemia
SK-MEL-2 melanoma = system: SK-MEL-2 melanoma
SF-268 CNS = system: SF-268 CNS
MDA-MB-468 breast = system: MDA-MB-468 breast
SN12C renal = system: SN12C renal
SNB-19 CNS = system: SNB-19 CNS
MDA-MB-231 breast = system: MDA-MB-231 breast
TK-10 renal = system: TK-10 renal
COLO 205 colon = system: COLO 205 colon
SK-MEL-28 melanoma = system: SK-MEL-28 melanoma
A549 NSCLC = system: A549 NSCLC
NCI/ADR-RES ovarian = system: NCI/ADR-RES ovarian
MALME-3M melanoma = system: MALME-3M melanoma
MOLT-4 leukemia = system: MOLT-4 leukemia
OVCAR-3 ovarian = system: OVCAR-3 ovarian
A498 renal = system: A498 renal
RPMI-8226 leukemia = system: RPMI-8226 leukemia
HCC-2998 colon = system: HCC-2998 colon
UACC-62 melanoma = system: UACC-62 melanoma
MDA-MB-435 = system: MDA-MB-435
CCRF-CEM leukemia = system: CCRF-CEM leukemia

What does the source list for `CN1CCN(c2ccc(Nc3nc(N4CCN(S(=O)(=O)c5ccc(Cl)cc5)CC4)c4sccc4n3)cc2)CC1`?
GI50 (T-47D breast): 7.17 µM; TGI (T-47D breast): 35.9 µM; GI50 (NCI-H23 lung): 19.1 µM; TGI (NCI-H23 lung): 66.3 µM; GI50 (RXF 393 renal): 1.91 µM; TGI (RXF 393 renal): 3.68 µM; GI50 (UO-31 renal): 13.7 µM; TGI (UO-31 renal): 29.6 µM; GI50 (EKVX NSCLC): 22 µM; TGI (EKVX NSCLC): 59.8 µM; GI50 (ACHN renal): 3.03 µM; TGI (ACHN renal): 11.4 µM; GI50 (OVCAR-5 ovarian): 15.6 µM; TGI (OVCAR-5 ovarian): 39.5 µM; GI50 (HOP-92 NSCLC): 10.7 µM; TGI (HOP-92 NSCLC): 28.7 µM; GI50 (SF-539 CNS): 1.69 µM; TGI (SF-539 CNS): 3.16 µM; GI50 (SK-OV-3 ovarian): 26.8 µM; TGI (SK-OV-3 ovarian): 69.2 µM; GI50 (NCI-H226 lung): 18.7 µM; TGI (NCI-H226 lung): 55.5 µM; GI50 (OVCAR-4 ovarian): 14.9 µM; TGI (OVCAR-4 ovarian): 38.7 µM; GI50 (DU-145 prostate): 3.36 µM; TGI (DU-145 prostate): 10.8 µM; GI50 (CAKI-1 renal): 11.6 µM; TGI (CAKI-1 renal): 27.8 µM; GI50 (IGROV1 ovarian): 14.5 µM; TGI (IGROV1 ovarian): 44.8 µM; GI50 (NCI-H460 lung): 1.93 µM; TGI (NCI-H460 lung): 3.69 µM; GI50 (KM12 colon): 4.85 µM; TGI (KM12 colon): 20 µM; GI50 (K-562 leukemia): 2.16 µM; TGI (K-562 leukemia): 6.04 µM; GI50 (PC-3 prostate): 4.01 µM; TGI (PC-3 prostate): > 100 µM; GI50 (M14 melanoma): 1.85 µM; TGI (M14 melanoma): 3.62 µM; GI50 (HL-60(TB) leukemia): 2.1 µM; TGI (HL-60(TB) leukemia): 4.47 µM; GI50 (SNB-75 CNS): 9.97 µM; TGI (SNB-75 CNS): 24.3 µM; GI50 (HOP-62 NSCLC): 28.9 µM; TGI (HOP-62 NSCLC): 88.8 µM; GI50 (HS 578T breast): 13.1 µM; TGI (HS 578T breast): 46.7 µM; GI50 (BT-549 breast): 20.8 µM; TGI (BT-549 breast): 58.7 µM; GI50 (SR leukemia): 1.92 µM; TGI (SR leukemia): 4.82 µM; GI50 (SK-MEL-2 melanoma): 19.4 µM; TGI (SK-MEL-2 melanoma): 40.1 µM; GI50 (SF-268 CNS): 13.5 µM; TGI (SF-268 CNS): 39 µM; GI50 (MDA-MB-468 breast): 1.64 µM; TGI (MDA-MB-468 breast): 3.14 µM; GI50 (SN12C renal): 13.7 µM; TGI (SN12C renal): 34.7 µM; GI50 (SNB-19 CNS): 3.69 µM; TGI (SNB-19 CNS): 17.1 µM; GI50 (MDA-MB-231 breast): 1.71 µM; TGI (MDA-MB-231 breast): 3.27 µM; GI50 (TK-10 renal): 6.47 µM; TGI (TK-10 renal): 21.6 µM; GI50 (COLO 205 colon): 2.67 µM; TGI (COLO 205 colon): 7.54 µM; GI50 (SK-MEL-28 melanoma): 1.73 µM; TGI (SK-MEL-28 melanoma): 3.36 µM; GI50 (A549 NSCLC): 4.35 µM; TGI (A549 NSCLC): 24.9 µM; GI50 (NCI/ADR-RES ovarian): 10.9 µM; TGI (NCI/ADR-RES ovarian): 39.7 µM; GI50 (MALME-3M melanoma): 1.64 µM; TGI (MALME-3M melanoma): 3.03 µM; GI50 (MOLT-4 leukemia): 2.21 µM; TGI (MOLT-4 leukemia): 5.78 µM; GI50 (OVCAR-3 ovarian): 2.85 µM; TGI (OVCAR-3 ovarian): 7.42 µM; GI50 (A498 renal): 17.5 µM; TGI (A498 renal): 31.6 µM; GI50 (RPMI-8226 leukemia): 2.89 µM; TGI (RPMI-8226 leukemia): 6.13 µM; GI50 (HCC-2998 colon): 2.64 µM; TGI (HCC-2998 colon): 6.18 µM; GI50 (UACC-62 melanoma): 1.71 µM; TGI (UACC-62 melanoma): 3.25 µM; GI50 (MDA-MB-435): 1.76 µM; TGI (MDA-MB-435): 3.31 µM; GI50 (CCRF-CEM leukemia): 4.47 µM; TGI (CCRF-CEM leukemia): 32.6 µM
